Laboratory results reported in patent publication US8586588B2, “Aryl pyridazinone derivatives and their use as H3 receptor ligands” (Cephalon, Inc., priority 2006, dated 2013).
Counter-ions that a name gives are not always drawn.

Which melting point does the source give for `Cn1nc(-c2ccc(OCCCN3CCCCC3)cc2)c2c(c1=O)CCC2` (as salt: HCl) [Example 57, 2-Methyl-4-[4-(3-piperidin-1-yl-propoxy)-phenyl]-2,5,6,7-tetrahydro-cyclopenta[d]pyridazin-1-one] here?
The melting point was 214 to 216 °C.

Which melting point does the source give for `C[C@@H]1CCCN1CCCOc1ccc(C2=NN(C)C(=O)C3CCCC23)cc1` (stereo partly drawn) (as salt: HCl) [Example 58, 2-Methyl-4-{4-[3-((R)-2-methyl-pyrrolidin-1-yl)-propoxy]-phenyl}-2,4a,5,6,7,7a-hexahydro-cyclopenta[d]pyridazin-1-one] here?
Its melting point is less than 50 °C.

For `CN1N=C(c2ccc(OCCCN3CCCCC3)cc2)C2CCCC2C1=O` (stereo not drawn) (as salt: HCl) [Example 59, 2-Methyl-4-[4-(3-piperidin-1-yl-propoxy)-phenyl]-2,4a,5,6,7,7a-hexahydro-cyclopenta[d]pyridazin-1-one], which melting point is on record?
Its melting point is less than 50 °C.

For `C[C@@H]1CCCN1CCCOc1ccc(-c2nn(C)c(=O)c3c2CCCC3)cc1` (as salt: HCl) [Example 60, 2-Methyl-4-{4-[3-((R)-2-methyl-pyrrolidin-1-yl)-propoxy]-phenyl}-5,6,7,8-tetrahydro-2H-phthalazin-1-one], which melting point is on record?
The melting point was 156 to 158 °C.

With `Cn1nc(-c2ccc(OCCCN3CCCCC3)cc2)c2c(c1=O)CCCC2` (as salt: HCl) [Example 61] as the compound, how does the melting point read?
The melting point was 196 to 198 °C.

Which melting point does the source give for `Cn1nc(-c2ccc(OCC3CCNCC3)cc2)c2ccccc2c1=O` (as salt: HCl) [Example 63, 2-Methyl-4-[4-(piperidin-4-ylmethoxy)-phenyl]-2H-phthalazin-1-one] here?
The melting point was 207 to 209 °C.

With `Cn1nc(-c2ccc(OCC3CCN(C4CCC4)CC3)cc2)c2ccccc2c1=O` (as salt: HCl) [Example 64, 4-[4-(1-Cyclobutyl-piperidin-4-ylmethoxy)-phenyl]-2-methyl-2H-phthalazin-1-one] as the compound, how does the melting point read?
The melting point was 256 to 257 °C.

Which melting point does the source give for `Cn1nc(-c2ccc(OCC3CCNCC3)cc2)ccc1=O` (as salt: HCl) [Example 66, 2-Methyl-6-[4-(piperidin-4-ylmethoxy)-phenyl]-2H-pyridazin-3-one] here?
Its melting point is 249 to 251 °C.

For `Cn1nc(-c2ccc(OCC3CCN(C4CCC4)CC3)cc2)ccc1=O` (as salt: HCl) [Example 67, 6-[4-(1-Cyclobutyl-piperidin-4-ylmethoxy)-phenyl]-2-methyl-2H-pyridazin-3-one], which melting point is on record?
The melting point was 250 to 252 °C.

With `CC(C)N1CCC(COc2ccc(-c3ccc(=O)n(C)n3)cc2)CC1` (as salt: HCl) [Example 68, 6-[4-(1-Isopropyl-piperidin-4-ylmethoxy)-phenyl]-2-methyl-2H-pyridazin-3-one] as the compound, how does the melting point read?
Its melting point is 187 to 189 °C.

For `Cn1nc(-c2ccc(OCC3CCN(CC4CC4)CC3)cc2)ccc1=O` (as salt: HCl) [Example 69, 6-[4-(1-Cyclopropylmethyl-piperidin-4-ylmethoxy)-phenyl]-2-methyl-2H-pyridazin-3-one], which melting point is on record?
The melting point was 230 to 231 °C.

With `Cn1nc(-c2ccc(OCC3CCN(C4CCCC4)CC3)cc2)ccc1=O` (as salt: HCl) [Example 70, 6-[4-(1-Cyclopentyl-piperidin-4-ylmethoxy)-phenyl]-2-methyl-2H-pyridazin-3-one] as the compound, how does the melting point read?
Its melting point is 250 to 251 °C.

Which melting point does the source give for `CN1CCC(COc2ccc(-c3ccc(=O)n(C)n3)cc2)CC1` (as salt: HCl) [Example 71, 2-Methyl-6-[4-(1-methyl-piperidin-4-ylmethoxy)-phenyl]-2H-pyridazin-3-one] here?
Its melting point is 257 to 258 °C.

With `CC(C)N1CCC(Oc2ccc(-c3ccc(=O)n(C)n3)cc2)CC1` (as salt: HCl) [Example 72] as the compound, how does the melting point read?
The melting point was 108 to 110 °C.

With `C[C@@H]1CCCN1CCCOc1ccc2c(c1)CCc1cc(=O)n(-c3ccccc3)nc1-2` (as salt: HCl) [Example 76, 8-[3-((R)-2-Methyl-pyrrolidin-1-yl)-propoxy]-2-phenyl-5,6-dihydro-2H-benzo[h]cinnolin-3-one] as the compound, how does the melting point read?
Its melting point is 140 to 142 °C.

With `Cn1ncc2ccc(OCCCN3CCCCC3)cc2c1=O` (as salt: HCl) [Example 80, 2-Methyl-7-(3-piperidin-1-yl-propoxy)-2H-phthalazin-1-one] as the compound, how does the melting point read?
The melting point was 251 to 252 °C.

For `C[C@@H]1CCCN1CCCOc1ccc(-c2ccc(=O)n(-c3ccccc3)n2)cc1F` (as salt: HCl) [Example 81, 6-{3-Fluoro-4-[3-((R)-2-methyl-pyrrolidin-1-yl)-propoxy]-phenyl}-2-phenyl-2H-pyridazin-3-one], which melting point is on record?
Its melting point is 190 to 191 °C.

With `C[C@@H](COc1ccc(-c2ccc(=O)n(C)n2)cc1)CN1CCC[C@H]1C` (as salt: HCl) [Example 82, 2-Methyl-6-{4-[(R)-2-methyl-3-((R)-2-methyl-pyrrolidin-1-yl)-propoxy]-phenyl}-2H-pyridazin-3-one] as the compound, how does the melting point read?
Its melting point is 76 to 78 °C.

With `Cc1nn(C)c(=O)cc1-c1ccc(OCCCN2CCC[C@H]2C)cc1` (as salt: HCl) [Example 86, 2,6-Dimethyl-5-{4-[3-((R)-2-methyl-pyrrolidin-1-yl)-propoxy]-phenyl}-2H-pyridazin-3-one] as the compound, how does the melting point read?
The melting point was 176 to 178 °C.

For `O=c1cc(-c2ccc(OCCCN3CCCCC3)cc2)cnn1-c1ccccn1` (as salt: HCl) [Example 95, 5-[4-(3-Piperidin-1-yl-propoxy)-phenyl]-2-pyridin-2-yl-2H-pyridazin-3-one], which melting point is on record?
The melting point was 266 to 268 °C.

For `O=c1cc(-c2ccc(OCCCN3CCCCCC3)cc2)cnn1-c1ccccn1` (as salt: HCl) [Example 96, 5-[4-(3-Azepan-1-yl-propoxy)-phenyl]-2-pyridin-2-yl-2H-pyridazin-3-one], which melting point is on record?
Its melting point is 230 to 232 °C.

With `Cc1n[nH]c(=O)cc1-c1ccc(OC2CCN(C3CCC3)CC2)cc1` (as salt: HCl) [Example 103, 5-[4-(1-Cyclobutyl-piperidin-4-yloxy)-phenyl]-6-methyl-2H-pyridazin-3-one] as the compound, how does the melting point read?
Its melting point is 296 to 297 °C.

Which melting point does the source give for `Cc1nn(-c2ccsc2)c(=O)cc1-c1ccc(OC2CCN(C3CCC3)CC2)cc1` (as salt: HCl) [Example 107, 5-[4-(1-Cyclobutyl-piperidin-4-yloxy)-phenyl]-6-methyl-2-thiophen-3-yl-2H-pyridazin-3-one] here?
Its melting point is 277 to 279 °C.

Which melting point does the source give for `Cc1nn(-c2ccsc2)c(=O)cc1-c1ccc(OCCCN2CCC[C@H]2C)cc1` (as salt: HCl) [Example 108, 6-Methyl-5-{4-[3-((R)-2-methyl-pyrrolidin-1-yl)-propoxy]-phenyl}-2-thiophen-3-yl-2H-pyridazin-3-one] here?
The melting point was 212 to 213 °C.

With `CC1CC(c2ccc(OC3CCN(C4CCC4)CC3)cc2)=NNC1=O` (stereo not drawn) (as salt: HCl) [Example 116, 6-[4-(1-Cyclobutyl-piperidin-4-yloxy)-phenyl]-4-methyl-4,5-dihydro-2H-pyridazin-3-one] as the compound, how does the melting point read?
The melting point was 257 to 259 °C.

With `C[C@@H]1CCCN1CCCOc1ccc(-c2ccc(=O)[nH]n2)cc1F` (as salt: HCl) [Example 119, 6-{3-Fluoro-4-[3-((R)-2-methyl-pyrrolidin-1-yl)-propoxy]-phenyl}-2H-pyridazin-3-one] as the compound, how does the melting point read?
The melting point was 252 to 253 °C.

For `O=c1ccc(-c2ccc(OCCCN3CCCCC3)c(F)c2)n[nH]1` (as salt: HCl) [Example 120, 6-[3-Fluoro-4-(3-piperidin-1-yl-propoxy)-phenyl]-2H-pyridazin-3-one], which melting point is on record?
Its melting point is 240 to 242 °C.
